# Measurements from patent US11130793B2, “GLP-1/GLP-2 dual agonists” (Zealand Pharma A/S, priority 2016, dated 2021).
# pEC50: −log10 of the molar value. Like-named read-outs stand apart in the source and are kept apart here. Square brackets hold non-standard residues; d marks the D form. Peptide text beside a SMILES is read from it. Aib = CC(C)(N)C(=O)O
# What was measured:
# [1] = tested on: Normal chow-fed C57BL/6J male mice; assay: Effect on fasting glucose and intestinal weight in normal mice; assay type: in vivo; details: for Small intestinal wet weight: 250 nmol/kg s.c. once daily for 4 days, sacrificed 24 hours after final dosing; for Fasting blood glucose: day 0, fasted mice, after a single s.c. injection, 250 nmol/kg
# Method: Normal chow-fed C57BL/6J male mice were used. The mice were kept in standard housing conditions, light-, temperature-, and humidity-controlled room (12:12 h light-dark cycle, with lights on at 06.00-18.00 h; 20-22° C.; 50-80% relative humidity). Each dosing group consisted of 6 animals. Mice were dosed once daily with 250 nmol/kg with the test compounds or vehicle for 4 days via subcutaneous administration.
# On day 0 mice were fasted and blood glucose levels measured after a single s.c. injection with peptides. Animals were sacrificed 24 hours after final dosing on day 3, and small intestinal wet weights were measured.
# human GLP-2 receptor = molecular target: T1, human GLP-2 receptor (Homo sapiens, UniProt O95838, D470N); assay: GLP-2 receptor potency assay (cAMP AlphaScreen, HEK293 cells stably expressing GLP-2R); assay type: cell-based; details: cAMP response, HEK293 cells expressing human GLP-2R
# T1 sequence (O95838 1-553 D470N): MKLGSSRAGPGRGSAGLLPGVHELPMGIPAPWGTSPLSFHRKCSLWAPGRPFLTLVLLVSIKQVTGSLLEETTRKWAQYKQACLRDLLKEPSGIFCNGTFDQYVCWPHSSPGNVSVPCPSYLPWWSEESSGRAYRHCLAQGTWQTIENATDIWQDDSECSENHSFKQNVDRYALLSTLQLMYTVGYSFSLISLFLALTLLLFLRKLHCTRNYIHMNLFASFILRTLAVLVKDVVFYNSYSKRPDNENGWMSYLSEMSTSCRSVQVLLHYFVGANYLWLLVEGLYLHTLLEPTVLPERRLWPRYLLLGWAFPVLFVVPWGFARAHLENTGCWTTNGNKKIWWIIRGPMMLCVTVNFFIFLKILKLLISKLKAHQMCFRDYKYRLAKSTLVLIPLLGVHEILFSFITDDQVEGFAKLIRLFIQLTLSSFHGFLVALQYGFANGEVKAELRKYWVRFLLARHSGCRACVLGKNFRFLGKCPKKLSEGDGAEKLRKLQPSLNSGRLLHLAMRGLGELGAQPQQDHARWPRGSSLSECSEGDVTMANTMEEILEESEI
# Summary of the method: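 HEK293 cells stably expressing human GLP-2R (G418-selected clone); intracellular cAMP measured by AlphaScreen. Responses normalized to positive and vehicle controls; EC50 and maximal response from 4-parameter logistic fit.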
# human GLP-1 receptor = molecular target: T2, human GLP-1 receptor (Homo sapiens, UniProt P43220); assay: GLP-1 receptor potency assay (cAMP AlphaScreen, HEK293 cells stably expressing GLP-1R); assay type: cell-based; details: cAMP response, HEK293 cells expressing human GLP-1R; read-out: EC50 GLP-1
# T2 construct: expressed in transfected cells
# Summary of the method: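 A HEK293 clone stably expressing cloned human GLP-1R (G418-selected) was stimulated with compound. Intracellular cAMP was measured by AlphaScreen. Responses were normalized to positive and vehicle controls, and EC50 and maximal response were fitted by 4-parameter logistic regression.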
# [2] = Solubility assessment by turbidity absorbance at 325 nm; assay type: physicochemical; details: 1 mg/ml peptide
# Method: A stock solution of the test peptide (2 mg/ml; determined from the weighed amount of peptide) in demineralized water adjusted to pH 2.5 with HCl was prepared, and aliquots were diluted 1:1 in 100 mM acetate buffer (pH 4.0 and pH 5.0), 100 mM histidine buffer (pH 6.0 and pH 7.0) and 100 mM phosphate buffer (pH 6.0, pH 7.0 and pH7.5), respectively, and loaded in a standard flat-bottom, non-sterile 96-well UV Microplate. The absorbance of samples (single samples, n=1) at 280 and 325 nm was measured in an absorbance-based plate reader, which was preheated to ambient temperature (typically 25° C.).
# T2 sequence (P43220 24-463): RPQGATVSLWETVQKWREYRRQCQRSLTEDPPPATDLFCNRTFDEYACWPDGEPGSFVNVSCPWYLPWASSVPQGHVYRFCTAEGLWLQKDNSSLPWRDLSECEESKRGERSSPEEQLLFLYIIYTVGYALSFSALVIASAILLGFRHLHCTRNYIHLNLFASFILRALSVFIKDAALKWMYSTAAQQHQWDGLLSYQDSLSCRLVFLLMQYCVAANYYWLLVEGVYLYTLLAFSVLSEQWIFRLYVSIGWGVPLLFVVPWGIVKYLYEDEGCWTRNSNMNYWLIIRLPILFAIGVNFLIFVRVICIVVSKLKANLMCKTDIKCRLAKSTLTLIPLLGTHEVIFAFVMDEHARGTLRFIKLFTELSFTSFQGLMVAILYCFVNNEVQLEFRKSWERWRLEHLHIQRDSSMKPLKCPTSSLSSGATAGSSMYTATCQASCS
pEC50 (human GLP-2 receptor),pEC50 (human GLP-1 receptor),"solubility ([2]; 100 mM acetate buffer pH 4.0, ambient temperature, read-out: Solubility, Acetate buffer pH 4)","solubility ([2]; 100 mM acetate buffer pH 5.0, ambient temperature, read-out: Solubility, Acetate buffer pH 5)","solubility ([2]; 100 mM histidine buffer pH 6.0, ambient temperature, read-out: Solubility, Histidine buffer pH 6)","solubility ([2]; 100 mM histidine buffer pH 7.0, ambient temperature, read-out: Solubility, Histidine buffer pH 7)","solubility ([2]; 100 mM phosphate buffer pH 6.0, ambient temperature, read-out: Solubility, Phosphate buffer pH 6)","solubility ([2]; 100 mM phosphate buffer pH 7.0, ambient temperature, read-out: Solubility, Phosphate buffer pH 7)","solubility ([2]; 100 mM phosphate buffer pH 7.5, ambient temperature, read-out: Solubility, Phosphate buffer pH 7.5)",Compound,Small intestinal wet weight [1],Fasting blood glucose [1]
10.31,11.30,–,–,–,–,–,–,–,CC[C@H](C)[C@H](NC(=O)[C@H](CC(C)C)NC(=O)[C@H](Cc1c[nH]c2ccccc12)NC(=O)[C@H](CO)NC(=O)[C@@H](NC(=O)[C@H](Cc1ccccc1)NC(=O)[C@H](CC(=O)O)NC(=O)[C@H](CCCNC(=N)N)NC(=O)[C@H](C)NC(=O)[C@H](C)NC(=O)[C@H](CCC(N)=O)NC(=O)[C@H](CCC(=O)O)NC(=O)[C@H](CC(=O)O)NC(=O)[C@H](CC(C)C)NC(=O)[C@@H](NC(=O)[C@@H](NC(=O)[C@H](C)NC(=O)[C@H](CC(C)C)NC(=O)[C@H](CCC(=O)O)NC(=O)[C@H](CO)NC(=O)[C@@H](NC(=O)[C@H](Cc1ccccc1)NC(=O)[C@@H](NC(=O)CNC(=O)[C@H](CCC(=O)O)NC(=O)C(C)(C)NC(=O)[C@@H](N)Cc1c[nH]cn1)[C@@H](C)O)[C@@H](C)O)[C@@H](C)O)[C@@H](C)CC)[C@@H](C)CC)C(=O)N[C@@H](C)C(=O)N[C@@H](Cc1c[nH]cn1)C(=O)N[C@@H](CCCCN)C(=O)N[C@H](C(=O)N[C@H](C(=O)N[C@@H](CC(=O)O)C(=O)O)[C@@H](C)O)[C@@H](C)CC [Compound 34] (H-H[Aib]EGTFTSELATILDEQAARDFISWLIAHKITD-OH),0.93 g,5.62 mM
10.44,11.13,≥ 1000 µg/mL,< 1000 µg/mL,≥ 1000 µg/mL,≥ 1000 µg/mL,≥ 1000 µg/mL,≥ 1000 µg/mL,≥ 1000 µg/mL,CC[C@H](C)[C@H](NC(=O)[C@H](CC(C)C)NC(=O)[C@H](Cc1c[nH]c2ccccc12)NC(=O)[C@H](C)NC(=O)[C@@H](NC(=O)[C@H](Cc1ccccc1)NC(=O)[C@H](CC(=O)O)NC(=O)[C@H](CCCNC(=N)N)NC(=O)[C@H](C)NC(=O)[C@H](C)NC(=O)[C@H](CCC(N)=O)NC(=O)[C@H](CCC(=O)O)NC(=O)[C@H](CC(=O)O)NC(=O)[C@H](CC(C)C)NC(=O)[C@@H](NC(=O)[C@@H](NC(=O)[C@H](C)NC(=O)[C@H](CC(C)C)NC(=O)[C@H](CCC(=O)O)NC(=O)[C@H](CO)NC(=O)[C@@H](NC(=O)[C@H](Cc1ccccc1)NC(=O)[C@@H](NC(=O)CNC(=O)[C@H](CCC(=O)O)NC(=O)C(C)(C)NC(=O)[C@@H](N)Cc1c[nH]cn1)[C@@H](C)O)[C@@H](C)O)[C@@H](C)O)[C@@H](C)CC)[C@@H](C)CC)C(=O)N[C@@H](C)C(=O)N[C@@H](Cc1c[nH]cn1)C(=O)N[C@@H](CCCCN)C(=O)N[C@H](C(=O)N[C@H](C(=O)N[C@@H](CC(=O)O)C(=O)O)[C@@H](C)O)[C@@H](C)CC [Compound 3] (H-H[Aib]EGTFTSELATILDEQAARDFIAWLIAHKITD-OH),–,–

# More lines, now with the values behind:
Compound,pEC50 (human GLP-2 receptor),pEC50 (human GLP-1 receptor),"solubility ([2]; 100 mM acetate buffer pH 4.0, ambient temperature, read-out: Solubility, Acetate buffer pH 4)","solubility ([2]; 100 mM acetate buffer pH 5.0, ambient temperature, read-out: Solubility, Acetate buffer pH 5)","solubility ([2]; 100 mM histidine buffer pH 6.0, ambient temperature, read-out: Solubility, Histidine buffer pH 6)","solubility ([2]; 100 mM histidine buffer pH 7.0, ambient temperature, read-out: Solubility, Histidine buffer pH 7)","solubility ([2]; 100 mM phosphate buffer pH 6.0, ambient temperature, read-out: Solubility, Phosphate buffer pH 6)","solubility ([2]; 100 mM phosphate buffer pH 7.0, ambient temperature, read-out: Solubility, Phosphate buffer pH 7)","solubility ([2]; 100 mM phosphate buffer pH 7.5, ambient temperature, read-out: Solubility, Phosphate buffer pH 7.5)",Small intestinal wet weight [1],Fasting blood glucose [1]
CC[C@H](C)[C@H](NC(=O)[C@H](Cc1ccccc1)NC(=O)[C@H](CC(=O)O)NC(=O)[C@H](CCCNC(=N)N)NC(=O)[C@H](C)NC(=O)[C@H](C)NC(=O)[C@H](CCC(N)=O)NC(=O)[C@H](CCC(=O)O)NC(=O)[C@H](CC(=O)O)NC(=O)[C@H](CC(C)C)NC(=O)[C@@H](NC(=O)[C@@H](NC(=O)[C@H](C)NC(=O)[C@H](CC(C)C)NC(=O)[C@H](CCC(=O)O)NC(=O)[C@H](CO)NC(=O)[C@@H](NC(=O)[C@H](Cc1ccccc1)NC(=O)[C@H](CO)NC(=O)CNC(=O)[C@H](CCC(=O)O)NC(=O)C(C)(C)NC(=O)[C@@H](N)Cc1c[nH]cn1)[C@@H](C)O)[C@@H](C)O)[C@@H](C)CC)C(=O)N[C@@H](C)C(=O)N[C@@H](Cc1c[nH]c2ccccc12)C(=O)N[C@@H](CC(C)C)C(=O)N[C@@H](Cc1c[nH]cn1)C(=O)N[C@@H](C)C(=O)N[C@@H](Cc1c[nH]cn1)C(=O)N[C@@H](CCCCN)C(=O)N[C@H](C(=O)N[C@H](C(=O)N[C@@H](CC(=O)O)C(=O)O)[C@@H](C)O)[C@@H](C)CC [Compound 22] (H-H[Aib]EGSFTSELATILDEQAARDFIAWLHAHKITD-OH),10.38,9.55,–,–,–,–,–,–,–,0.82 g,6.18 mM
CC[C@H](C)[C@H](NC(=O)[C@H](Cc1ccccc1)NC(=O)[C@H](CC(=O)O)NC(=O)[C@H](CCCNC(=N)N)NC(=O)[C@H](C)NC(=O)[C@H](C)NC(=O)[C@H](CCC(N)=O)NC(=O)[C@H](CCC(=O)O)NC(=O)[C@H](CC(=O)O)NC(=O)[C@H](CC(C)C)NC(=O)[C@@H](NC(=O)[C@@H](NC(=O)[C@H](C)NC(=O)[C@H](CC(C)C)NC(=O)[C@H](CCC(=O)O)NC(=O)[C@H](CO)NC(=O)[C@@H](NC(=O)[C@H](Cc1ccccc1)NC(=O)[C@@H](NC(=O)CNC(=O)[C@H](CCC(=O)O)NC(=O)C(C)(C)NC(=O)[C@@H](N)Cc1c[nH]cn1)[C@@H](C)O)[C@@H](C)O)[C@@H](C)O)[C@@H](C)CC)C(=O)N[C@@H](CC(N)=O)C(=O)N[C@@H](Cc1c[nH]c2ccccc12)C(=O)N[C@@H](CC(C)C)C(=O)N[C@@H](CCCCN)C(=O)N[C@@H](C)C(=O)N[C@@H](Cc1c[nH]cn1)C(=O)N[C@@H](CCCCN)C(=O)N[C@H](C(=O)N[C@H](C(=O)N[C@@H](CC(=O)O)C(=O)O)[C@@H](C)O)[C@@H](C)CC [Compound 35] (H-H[Aib]EGTFTSELATILDEQAARDFINWLKAHKITD-OH),10.32,11.22,–,–,–,–,–,–,–,0.81 g,5.95 mM
CC[C@H](C)[C@H](NC(=O)[C@H](Cc1ccccc1)NC(=O)[C@H](CC(=O)O)NC(=O)[C@H](CCCNC(=N)N)NC(=O)[C@H](C)NC(=O)[C@H](C)NC(=O)[C@H](CCC(N)=O)NC(=O)[C@H](CCC(=O)O)NC(=O)[C@H](CC(=O)O)NC(=O)[C@H](CC(C)C)NC(=O)[C@@H](NC(=O)[C@@H](NC(=O)[C@H](C)NC(=O)[C@H](CC(C)C)NC(=O)[C@H](CCC(=O)O)NC(=O)[C@H](CO)NC(=O)[C@@H](NC(=O)[C@H](Cc1ccccc1)NC(=O)[C@@H](NC(=O)CNC(=O)[C@H](CCC(=O)O)NC(=O)C(C)(C)NC(=O)[C@@H](N)Cc1c[nH]cn1)[C@@H](C)O)[C@@H](C)O)[C@@H](C)O)[C@@H](C)CC)C(=O)N[C@@H](C)C(=O)N[C@@H](Cc1c[nH]c2ccccc12)C(=O)N[C@@H](CC(C)C)C(=O)N[C@@H](CCC(N)=O)C(=O)N[C@@H](C)C(=O)N[C@@H](CCC(N)=O)C(=O)N[C@@H](CCCCN)C(=O)N[C@H](C(=O)N[C@H](C(=O)N[C@@H](CC(=O)O)C(=O)O)[C@@H](C)O)[C@@H](C)CC [Compound 26] (H-H[Aib]EGTFTSELATILDEQAARDFIAWLQAQKITD-OH),9.72,10.89,–,–,–,–,–,–,–,0.78 g,5.70 mM
